In series [1] the target is RsmI (G12-P258) (Escherichia coli, UniProt P67087). The experiment in a line: X-ray crystal structure, […] Å. It counts as binding. The following applies: co-crystallised, AdoMet:RsmI 5:1; site between NTD and CTD.
In series [2] the target is RsmI (full-length) (Escherichia coli, UniProt P67087, F144A). Nature of the series: isothermal titration calorimetry, one-site model. It counts as binding. To be noted: read-out: Ka (10^4/M) (converted).
Series [3] deals with RsmI (full-length) (Escherichia coli, UniProt P67087, Y169A). Nature of the series: isothermal titration calorimetry, one-site model. It counts as binding. The following applies: read-out: Ka (10^4/M) (converted). For orientation: Isothermal titration calorimetry measures the heat released or taken up as one component is titrated into another.
Chain of RsmI (full-length) (Escherichia coli, UniProt P67087, Y169A) (P67087 whole entry Y169A): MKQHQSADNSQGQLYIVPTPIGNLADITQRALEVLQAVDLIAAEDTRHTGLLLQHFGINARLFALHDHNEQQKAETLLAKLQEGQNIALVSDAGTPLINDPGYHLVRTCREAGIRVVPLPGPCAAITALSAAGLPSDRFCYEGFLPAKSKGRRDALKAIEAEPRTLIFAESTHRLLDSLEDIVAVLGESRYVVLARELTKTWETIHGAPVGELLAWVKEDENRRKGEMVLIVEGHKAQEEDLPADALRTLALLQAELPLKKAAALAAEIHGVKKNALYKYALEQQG
Series [4] deals with RsmI (full-length) (Escherichia coli, UniProt P67087). Nature of the series: isothermal titration calorimetry, one-site model. It counts as binding. To be noted: read-out: Ka (10^4/M) (converted).
Chain of RsmI (full-length) (Escherichia coli, UniProt P67087) (P67087 whole entry): as the sequence (P67087 whole entry Y169A) above, with A169Y counted along it
Series [5] deals with the molecule itself. Nature of the series: SEC; gel filtration on Superdex 200 10/300 GL; purified RsmI (Gly12-Pro258) eluted at 15.0 ml, compared with protein standards. On the technique in general: SEC sorts molecules by how far they enter the pores of the column.

Chain of RsmI (full-length) (Escherichia coli, UniProt P67087, F144A) (P67087 whole entry F144A): as the sequence (P67087 whole entry Y169A) above, with F144A, A169Y counted along it

In the case of `C[S+](CC[C@H](N)C(=O)O)C[C@H]1O[C@@H](n2cnc3c(N)ncnc32)[C@H](O)[C@@H]1O` (some centres unmarked) [AdoMet], the “X-ray crystal structure, 2.20 Å” value in series [1] is “coordinate and structure factor of RsmI-AdoMet complex have been deposited with the RCSB PDB”. For the same molecule, the Kd in series [2] was 67.6 µM; in series [3] it was 24.2 µM; in series [4] it was 23.3 µM.

B1: RsmI truncation Gly12-Pro258 (E. coli 16S rRNA 2'-O-methyltransferase RsmI) (domain or fragment, Escherichia coli, UniProt P67087 12-258, looked up)
chain: GQLYIVPTPIGNLADITQRALEVLQAVDLIAAEDTRHTGLLLQHFGINARLFALHDHNEQQKAETLLAKLQEGQNIALVSDAGTPLINDPGYHLVRTCREAGIRVVPLPGPCAAITALSAAGLPSDRFCYEGFLPAKSKGRRDALKAIEAEPRTLIFYESTHRLLDSLEDIVAVLGESRYVVLARELTKTWETIHGAPVGELLAWVKEDENRRKGEMVLIVEGHKAQEEDLPADALRTLALLQAELP
notes: RsmI, AdoMet-dependent methyltransferase for 2'-O-methylation of C1402 in 16S rRNA, Escherichia coli, residues Gly12-Pro258; It was co-crystallised with the cofactor AdoMet; The asymmetric unit holds three molecules: one non-crystallographic dimer and one half of a crystallographic dimer; also called RmsI; RsmI (G12-P258); source: expressed and purified as reported previously [15]
Usually stoichiometry N stands for a count of units in the complex or per binding partner. As for B1, in series [5], the “stoichiometry N” value is 2.

The values above are taken from article PMC5053481, “Structural Insights into the Methylation of C1402 in 16S rRNA by Methyltransferase RsmI” (PLoS ONE, 2016).
